Measurements reported in the supplement of paper PMC10307832.

How the values were obtained:
Assay in all cases: relative viability (nuclei count vs DMSO), 5 days (fraction); higher = more cells survive
BI-D1870 = compound: CC(C)CCN1c2nc(Nc3cc(F)c(O)c(F)c3)ncc2N(C)C(=O)C1C [BI-D1870]
Procedure, shortened: (§1)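 Following overnight incubation at 37 °C, lung cancer cell lines in 1536-well plates were pinned with five library-drug doses (not always all listed) in √10 steps on vehicle-anchored plates. The cells then spent 5 days without medium change before a combined fix, permeabilisation and Hoechst stain, 4× imaging and MetaXpress nuclear counts. Viability is the treated-to-vehicle ratio of nuclei, taken as the median across plates. Only plates with control CV below 25% and at least one doubling passed.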

Zebularine = compound: O=c1ncccn1[C@@H]1O[C@H](CO)[C@@H](O)[C@H]1O [Zebularine]
Procedure, shortened: as §1

Zebularine + Pemetrexed = compound: O=c1ncccn1[C@@H]1O[C@H](CO)[C@@H](O)[C@H]1O [Zebularine] + Nc1nc2[nH]cc(CCc3ccc(C(=O)N[C@@H](CCC(=O)O)C(=O)O)cc3)c2c(=O)[nH]1 [Pemetrexed] (partner 0.2 µM)
Procedure, shortened: (§2)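 Lung cancer cell lines in 1536-well plates were dosed by pin tool the day after seeding, either with one drug alone or with a fixed anchor-drug dose plus five library-drug doses (not always all listed) in √10 steps. After 5 days, cells were fixed and their nuclei stained in one step (final 0.05% Triton X-100, 1% formaldehyde, 1 ug/ml Hoechst), then counted on 4× images. Relative viability is the nuclei count in treated wells divided by that in vehicle wells. Values are medians of duplicate plates.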

BI-D1870 + Alpelisib = compound: CC(C)CCN1c2nc(Nc3cc(F)c(O)c(F)c3)ncc2N(C)C(=O)C1C [BI-D1870] + Cc1nc(NC(=O)N2CCC[C@H]2C(N)=O)sc1-c1ccnc(C(C)(C)C(F)(F)F)c1 [Alpelisib] (partner 2 µM)
Procedure, shortened: as §2

| Cell Line | relative viability (BI-D1870; 0.04 µM) | relative viability (BI-D1870; 0.1265 µM) | relative viability (BI-D1870; 0.4 µM) | relative viability (BI-D1870; 1.265 µM) | relative viability (BI-D1870; 4 µM) | relative viability (Zebularine; 1 µM) | relative viability (Zebularine; 3.162 µM) | relative viability (Zebularine; 10 µM) | relative viability (Zebularine; 31.62 µM) | relative viability (Zebularine; 100 µM) | relative viability (Zebularine + Pemetrexed; first compound 1 µM) | relative viability (Zebularine + Pemetrexed; first compound 3.162 µM) | relative viability (Zebularine + Pemetrexed; first compound 10 µM) | relative viability (Zebularine + Pemetrexed; first compound 31.62 µM) | relative viability (Zebularine + Pemetrexed; first compound 100 µM) | relative viability (BI-D1870 + Alpelisib; first compound 0.04 µM) | relative viability (BI-D1870 + Alpelisib; first compound 0.1265 µM) | relative viability (BI-D1870 + Alpelisib; first compound 0.4 µM) | relative viability (BI-D1870 + Alpelisib; first compound 1.265 µM) | relative viability (BI-D1870 + Alpelisib; first compound 4 µM) |
| --- | --- | --- | --- | --- | --- | --- | --- | --- | --- | --- | --- | --- | --- | --- | --- | --- | --- | --- | --- | --- |
| NCI-H3122 | 1.03 | 0.927 | 0.951 | 1.02 | 0.903 | 1.03 | 0.987 | 0.875 | 1.01 | 1.04 | 0.189 | 0.183 | 0.175 | 0.225 | 0.225 | 0.721 | 0.643 | 0.724 | 0.852 | 0.749 |
| PC-3 [JPC-3] | 1.05 | 1.02 | 0.962 | 1.1 | 0.951 | 1.07 | 1.01 | 0.711 | 0.868 | 0.76 | 1.43 | 1.06 | 1.07 | 0.755 | 0.813 | 1.07 | 0.971 | 1.03 | 1.13 | 1 |
| PC-14 | 1.09 | 0.943 | 0.97 | 1.08 | 0.767 | 1.18 | 0.694 | 0.19 | 0.138 | 0.109 | 0.136 | 0.139 | 0.0749 | 0.0697 | 0.0552 | 1.15 | 0.882 | 0.913 | 0.837 | 0.862 |
| RERF-LC-KJ | 1.01 | 0.908 | 0.954 | 1.02 | 0.814 | 1.11 | 1.03 | 0.859 | 1.01 | 0.994 | 0.447 | 0.505 | 0.415 | 0.507 | 0.443 | 0.835 | 0.76 | 0.761 | 0.688 | 0.689 |
| SK-LU-1 | 1.07 | 0.91 | 0.972 | 0.997 | 0.669 | 1.07 | 0.989 | 0.626 | 0.739 | 0.544 | 1.03 | 0.922 | 0.52 | 0.523 | 0.542 | 1.04 | 0.879 | 0.807 | 0.653 | 0.237 |
| SK-MES-1 | 1.05 | 0.911 | 0.892 | 0.829 | 0.617 | 1.11 | 1.06 | 0.704 | 0.673 | 0.286 | 1.08 | 0.918 | 0.613 | 0.709 | 0.322 | 0.956 | 0.859 | 0.78 | 0.973 | 0.644 |
| SW 1573 | 1.14 | 0.896 | 0.968 | 0.857 | 0.61 | 1.04 | 0.897 | 0.721 | 1.01 | 0.77 | 0.798 | 0.854 | – | 0.855 | 0.522 | 0.934 | 0.64 | 0.723 | 0.794 | 0.661 |
| UMC-11 | 0.972 | 0.949 | 1.04 | 1.02 | 0.387 | 1.1 | 0.824 | 0.673 | 0.653 | 0.422 | 0.809 | 0.724 | 0.388 | 0.649 | 0.417 | 1.05 | 0.935 | 1 | 1.05 | 1.02 |
